According to patent US20230002327A1, “SMALL-MOLECULE REGULATOR OF TLR8” (TSINGHUA UNIVERSITY, priority 2019, published 2023):

Tests used:
[1] = test system: R848-induced signaling pathway in THP-1 cells; experiment: ELISA of inflammatory factors in R848-treated THP-1 cells; format: cell-based, human
Experimental: THP-1 cells treated with 50 ng/mL of PMA were suspended in RPMI medium (containing 10% fetal bovine serum, penicillin (100 U/mL), streptomycin ([…]) and 0.05 mM 2-mercaptoethanol), seeded in a 12-well plate at a density of 1×10^6 cells/well and 1 mL/well, and incubated in a cell incubator (37° C., 5% CO2).
After 48 hours, suspending cells would adhere onto the surface of the 12-well plate, non-adhered cells and the medium were aspirated, and cells were washed with sterile […] buffer (3×1 mL). RPMI medium was added (1 mL/well), and R848 (1 μg/mL) and various concentrations of Compound 24 or Compound 10 (as a negative control) were further added to treat cells. Or, the same amount of peripheral blood mononuclear cells derived from healthy human were used instead of THP-1 cells for subsequent experiments.
After 24 hours, the supernatant of the medium was collected and stored in a freezer at −80° C. Cells were washed with PBS (3×1 mL), the 12-well plate was placed on ice, and then 400 μL of lysis buffer (containing protease inhibitor) was added to each well, during which the cells were pipetted every five minutes. After 20 minutes, the mixture was transferred to the corresponding 1.5-mL tube and centrifuged at 13.2K rpm and 4° C. for 20 minutes. 350 μL of the supernatant was collected into a new centrifuge tube and frozen at −80° C.
Cytokines interleukin-1β(IL-1β), interleukin-6 (IL-6) and tumor necrosis factor (TNF-α) were quantified by enzyme-linked immunosorbent assay (ELISA) according to the instructions of the kit provided by the manufacturer.

[2] = molecular target: T1, TLR8 (Homo sapiens, UniProt Q9NR97); experiment: ssRNA40-induced signaling in HEK-Blue hTLR8 cell line; format: cell-based; conditions: at a concentration of 100 μM (FIG. 12)
T1 construct: host or cells: HEK-Blue hTLR8 (HEK293-derived SEAP reporter cells)
T1 sequence (Q9NR97 27-1041): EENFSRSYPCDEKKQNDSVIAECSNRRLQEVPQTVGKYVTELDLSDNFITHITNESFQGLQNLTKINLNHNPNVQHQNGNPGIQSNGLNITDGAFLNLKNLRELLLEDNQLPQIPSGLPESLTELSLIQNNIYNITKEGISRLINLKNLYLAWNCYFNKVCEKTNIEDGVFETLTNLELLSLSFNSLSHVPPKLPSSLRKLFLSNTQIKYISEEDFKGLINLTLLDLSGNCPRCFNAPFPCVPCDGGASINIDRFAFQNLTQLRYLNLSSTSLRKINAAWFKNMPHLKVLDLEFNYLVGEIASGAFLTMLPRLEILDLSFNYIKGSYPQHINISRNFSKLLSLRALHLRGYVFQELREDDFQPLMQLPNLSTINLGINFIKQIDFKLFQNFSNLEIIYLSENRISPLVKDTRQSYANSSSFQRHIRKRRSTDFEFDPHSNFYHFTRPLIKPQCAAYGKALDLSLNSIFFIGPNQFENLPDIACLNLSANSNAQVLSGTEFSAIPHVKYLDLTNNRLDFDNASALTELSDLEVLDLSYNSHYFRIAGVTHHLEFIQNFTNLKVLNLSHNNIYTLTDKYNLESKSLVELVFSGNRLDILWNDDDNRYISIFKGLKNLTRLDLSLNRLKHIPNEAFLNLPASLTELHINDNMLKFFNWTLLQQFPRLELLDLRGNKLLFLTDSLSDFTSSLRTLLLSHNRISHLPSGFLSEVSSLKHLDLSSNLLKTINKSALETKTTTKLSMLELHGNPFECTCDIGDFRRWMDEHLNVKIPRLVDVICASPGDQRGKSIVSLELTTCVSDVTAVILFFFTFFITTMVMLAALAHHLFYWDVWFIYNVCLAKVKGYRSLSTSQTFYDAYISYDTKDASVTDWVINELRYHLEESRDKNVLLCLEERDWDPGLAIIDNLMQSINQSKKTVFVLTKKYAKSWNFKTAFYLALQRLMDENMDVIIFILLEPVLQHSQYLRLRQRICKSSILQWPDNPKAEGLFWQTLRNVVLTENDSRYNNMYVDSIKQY
Experimental: HEK Blue hTLR8 cells or HEK Blue hTLR7 cells were cultured in DMEM medium supplemented with 10% fetal bovine serum, penicillin (100 U/mL) and streptomycin ([…]). Thereafter, cells were seeded in 96-well plate (45,000 cells per well), and were cultured for 24 hours in a humidified incubator (37° C., 5% CO2).
After 24 hours, the supernatant and suspending cells were aspirated and replaced with fresh serum-free DMEM. Cells were treated with 1 μg/mL of R848 (agonist of TLR7/8) or 5 μg/mL of ssRNA40/LyoVec or 5 μg/mL of ORN06/LyoVec (InvivoGen) and compounds with specified concentrations, and were placed in a humidified incubator (37° C., 5% CO2) for co-culture.
After 24 hours, 50 μL of the medium was aspirated from each well and then added to a new 96-well plate, followed by the addition of 50 μL of Quanti-Blue in each well and the incubation at 37° C. in darkness. Changes in color would occur in the […] within 60 minutes, and the absorbance was measured at 620 nm by using the multi-mode plate reader Vrioskan Flash. Inhibition rate (%)=[R848 (OD620)−Compound (OD620)]/[R848 (OD620)−Control (OD620)]×100%. Among these, the control group was only added with the same amount of cells. Finally, the software Prism 6.0 was utilized to plot a graph and calculate IC50 values. […]

synergistic activating effect on ssRNA40-induced signaling [2]	SMILES	inhibitory effect on inflammatory factor TNF-α ([1]; concentration-dependent (FIG. 5))	inhibitory effect on inflammatory factor IL-6 ([1]; concentration-dependent (FIG. 6))	inhibitory effect on inflammatory factor IL-1β ([1]; concentration-dependent (FIG. 7))
–	CSc1nnc(CCCO)n1-c1cc(C)c(C)c(C)c1 [Compound 24, 3-(5-(methylthio)-4-(3,4,5-trimethylphenyl)-4H-1,2,4-triazole-3-yl)propan-1-ol]	significant inhibitory effect	significant inhibitory effect	significant inhibitory effect
synergistic activating effect	CCOCc1nc(I)c(-c2ccccc2)n1CC(C)(C)O [Compound 53, 1-[2-(ethoxymethyl)-4-iodo-5-phenyl-1H-imidazole-1-yl]-2-methylpropan-2-ol]	–	–	–
